Columns and labels:
[1] = tested on: blood pressure of normotensive male Wistar rats; test: Heart rate and blood pressure in living rat (i.v., anaesthetized); type: in vivo; conditions: maximal decrease, 2 mg/kg i.v.
Text: Normotensive Male Wistar rats (NTRs), weighing 200˜300 g were abdominal anaesthetized with pentobarbital sodium. Tracheal was cannulated to maintain normal respiration. Polyethylene tube was inserted into the left femoral vein to facilitate drug administration. A 3-way stopcock was used, with one end comnected to a syringe for drug injection, while the other end was connected to the syringe filled with physiological saline. The latter was used to prevent residual drugs in the polyethylene tube after injection, which would affect experimental accuracy.
The right femoral artery was also inserted with polyethylene, and a 3-way stopcock was used tool, where one end was connected to heparin solution to prevent embolism. The other end was comnected to a Disposable Diaphragm Dome, TA1019, and linked to a pressure transducer (Model P10EZ; Spectramed, Oxnard, Calif., USA). Through an amplifier, a recorder recorded the overall and average arterial pressure; heart rate to evaluate the effect of drug on blood pressure and heart rate. Different concentrations 0.1, 1.0, 2.0, 3.0 mg/kg of test compounds were given to the rats via femoral vein and the differences in the heart rate and blood pressure were compared. Table 2 shown maximal decrease of blood pressure affect of compounds after given 2.0 mg/kg test compounds to the rats.

[2] = target: β1-adrenoceptor (left atrium) (Rattus norvegicus, UniProt P18090); test: β1-adrenoceptor antagonism, left atrium, pA2; conditions: Schild plot, mean ± SEM of six to eight experiments
[3] = tested on: β2-adrenoceptor (trachea); test: β2-adrenoceptor antagonism, trachea, pA2; parameters: species or system rat; conditions: Schild plot, mean ± SEM of six to eight experiments
Method: (§1) When the spontaneously beating rate of right atria reached a certain stability, cumulative administration of L-isoproterenol from 1×10^−10˜3×10^−10 M caused the heart rate to increase continuously, and a cumulative dose-response curve was obtained. Then the L-isoproterenol was thoroughly washed off with Kreb's solution to recover the right atria's heart rate stability. After the equilibrum was reached again for at least 60 minutes, different concentrations (10^−7, 10^−6, 10^−5 M) of compounds were added. 30 minutes later, cumulative administration of L-isoproterenol from 1×10^−10˜3×10^−10 M were carried out again, and another new cumulative dose-response curve was obtained. Administration of L-isoproterenol started from concentration 1×10^−10 M, and the concentration was raised 0.5 log each time for a total of six times. Cumulative administration interval was when the previous concentration reached its greatest effect, the next concentration would be immediately given. […] In other groups of rats, after separate administration of test compounds, their pA2 values were obtained.
pA2=−Log KB Log(DRADJ−1)=n log[B]−LogKB

[4] = tested on: β1-adrenoceptor (right atrium); test: β1-adrenoceptor antagonism, spontaneously beating right atrium, pA2 vs L-isoproterenol; conditions: for β1/β2 Ratio: antilogarithm of difference between mean pA2 of right atrium and trachea; for β1 pA2 value, Right atrium: Schild plot, mean ± SEM of six to eight experiments
Method: The spontaneously-beating right atria was clipped on both end by heart shaped clips, where one end was fixed at the bottom of 10 ml of tissue bath made of physiological saline solution, and temperature maintained at 37° C. The other end of the atria was connected to a force transducer, and isometric contractions and beating rate of the right atria were recorded by COULBOURN AT-High-Speed VideoFigure. After the samples were given 250 mg of contractions and reach equilibrium the following experiments were carried out:
as §1
pA2=−Log KB Log(DRADJ−1)=n log[B]−LogKB

[5] = target: T1, angiotensin converting enzyme (ACE) (Rattus norvegicus, UniProt P47820); test: ACE inhibitory activity in rat serum (Hycor kit, [3H]-hippuryl-glycyl-glycine); type: biochemical; conditions: mean of three samples
T1 construct: from tissue; host or cells: rat serum
T1 sequence (P47820 36-1238 limits assumed): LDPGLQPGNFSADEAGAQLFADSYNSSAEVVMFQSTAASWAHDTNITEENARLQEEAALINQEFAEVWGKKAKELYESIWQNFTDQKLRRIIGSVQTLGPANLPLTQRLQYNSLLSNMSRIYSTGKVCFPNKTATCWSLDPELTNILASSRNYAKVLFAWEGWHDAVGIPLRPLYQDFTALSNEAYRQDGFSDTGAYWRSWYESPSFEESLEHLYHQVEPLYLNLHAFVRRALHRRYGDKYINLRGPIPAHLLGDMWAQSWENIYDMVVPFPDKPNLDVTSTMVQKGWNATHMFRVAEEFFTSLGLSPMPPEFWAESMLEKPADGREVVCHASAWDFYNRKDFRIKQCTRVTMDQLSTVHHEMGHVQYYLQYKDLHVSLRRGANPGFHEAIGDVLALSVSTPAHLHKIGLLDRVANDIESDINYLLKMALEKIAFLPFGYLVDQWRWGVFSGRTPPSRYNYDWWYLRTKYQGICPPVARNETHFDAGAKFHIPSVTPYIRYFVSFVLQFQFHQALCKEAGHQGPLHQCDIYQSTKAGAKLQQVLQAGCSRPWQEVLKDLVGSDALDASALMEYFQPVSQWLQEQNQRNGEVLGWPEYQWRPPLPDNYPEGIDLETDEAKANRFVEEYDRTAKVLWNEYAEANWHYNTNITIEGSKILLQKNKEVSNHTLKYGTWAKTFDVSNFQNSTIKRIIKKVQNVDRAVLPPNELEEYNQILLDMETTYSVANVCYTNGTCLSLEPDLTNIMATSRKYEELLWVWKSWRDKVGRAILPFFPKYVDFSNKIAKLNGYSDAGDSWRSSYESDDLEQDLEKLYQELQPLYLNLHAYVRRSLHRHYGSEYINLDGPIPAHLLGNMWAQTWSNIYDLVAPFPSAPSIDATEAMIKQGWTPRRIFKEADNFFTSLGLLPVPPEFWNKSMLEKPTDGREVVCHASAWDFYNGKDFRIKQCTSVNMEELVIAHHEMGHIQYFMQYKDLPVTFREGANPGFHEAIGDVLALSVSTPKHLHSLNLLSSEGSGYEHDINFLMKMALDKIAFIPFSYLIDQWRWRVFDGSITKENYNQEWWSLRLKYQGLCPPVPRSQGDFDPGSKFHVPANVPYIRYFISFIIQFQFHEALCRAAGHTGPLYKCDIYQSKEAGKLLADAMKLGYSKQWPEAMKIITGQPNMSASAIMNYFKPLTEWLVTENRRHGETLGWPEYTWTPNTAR
Method: ACE value in serum was determined by Hycor kit, rat serum were cultured in 37° C. of [^3H]-hippuryl-glycyl-glycine for 60 minutes. While [^3H]-hippuryl-glycyl-glycine contains three peptide. [^3H] hippuric acid was obtained when extracted of culture solution with ethyl acetate, the content be determined by spectrophotometer. The content in serum sample was as the control group after it was added with 10^−8M, 10^−7M, 10^−6M compounds, then dissolved in PBS.

[6] = target: T2, angiotensin converting enzyme (ACE) (Rattus norvegicus, UniProt P47820); test: ACE activity value on tissue (rat lung membrane, Hip-His-Leu, fluorometric); type: biochemical; conditions: mean of three samples
T2 construct: Centrifuged 250-300 mg lung tissue; from tissue; host or cells: rat lung membrane fraction
T2 sequence (P47820 36-1313): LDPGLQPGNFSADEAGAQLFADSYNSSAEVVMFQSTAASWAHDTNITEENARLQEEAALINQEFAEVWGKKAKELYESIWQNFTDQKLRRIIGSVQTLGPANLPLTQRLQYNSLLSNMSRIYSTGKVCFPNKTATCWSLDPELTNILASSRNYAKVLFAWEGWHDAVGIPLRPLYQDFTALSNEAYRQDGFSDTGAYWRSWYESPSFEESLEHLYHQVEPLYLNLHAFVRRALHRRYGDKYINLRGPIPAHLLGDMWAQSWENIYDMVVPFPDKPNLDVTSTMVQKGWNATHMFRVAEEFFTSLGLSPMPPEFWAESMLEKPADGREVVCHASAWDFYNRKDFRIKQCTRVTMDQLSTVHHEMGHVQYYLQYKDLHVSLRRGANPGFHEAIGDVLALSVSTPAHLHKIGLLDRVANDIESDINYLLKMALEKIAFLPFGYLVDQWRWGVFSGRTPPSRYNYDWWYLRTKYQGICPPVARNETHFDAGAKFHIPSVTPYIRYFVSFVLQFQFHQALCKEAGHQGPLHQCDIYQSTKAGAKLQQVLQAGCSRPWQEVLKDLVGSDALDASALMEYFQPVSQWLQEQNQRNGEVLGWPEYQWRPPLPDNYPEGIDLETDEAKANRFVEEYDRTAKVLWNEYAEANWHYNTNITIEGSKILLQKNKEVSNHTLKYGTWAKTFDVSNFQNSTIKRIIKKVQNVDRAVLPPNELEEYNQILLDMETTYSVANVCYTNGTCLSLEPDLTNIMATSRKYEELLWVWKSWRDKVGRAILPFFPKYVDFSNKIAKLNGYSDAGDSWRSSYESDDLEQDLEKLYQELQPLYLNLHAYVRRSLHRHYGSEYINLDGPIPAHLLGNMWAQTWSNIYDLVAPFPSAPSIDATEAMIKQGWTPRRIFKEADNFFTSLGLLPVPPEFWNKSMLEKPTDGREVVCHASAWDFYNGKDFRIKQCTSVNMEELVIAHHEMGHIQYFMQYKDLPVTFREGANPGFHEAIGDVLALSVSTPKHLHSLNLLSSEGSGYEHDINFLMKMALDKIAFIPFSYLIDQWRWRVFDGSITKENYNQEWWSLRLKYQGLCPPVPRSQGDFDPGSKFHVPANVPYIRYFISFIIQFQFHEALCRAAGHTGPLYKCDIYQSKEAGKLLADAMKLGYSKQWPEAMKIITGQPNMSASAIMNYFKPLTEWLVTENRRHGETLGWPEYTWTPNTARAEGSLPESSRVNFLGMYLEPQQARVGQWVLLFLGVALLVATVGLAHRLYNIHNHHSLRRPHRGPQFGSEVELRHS
Method: Centrifuged 250-300 mg lung tissue, 3 ml extracted liquid (10 mmol/L HEPES, 125 mmol/L NaCl, pH7.4) under 12000 g for 20 minutes at 4° C. by Teflon-glass homogenizer, the cell membrane was obtained. The 3 ml homogenized liquid was added into twice, before and after centrifuged. Then the Lowry's method was adopted to determine the protein content in the membrane. Mixing 15 minute of liquid and 30 mmol/L Hip-His-Leu solution at 37° C. Fluorometric was used to determine the Hippurate content. test compounds (10^−8M, 10^−7M, 10^−6M) dissolved in PBS normal saline and used as control group. Then ACE activity inhibition rate was determined.

α1-adrenoceptor (aorta) = test: α-adrenoceptor antagonism, isolated rat aorta, pA2 vs norepinephrine; parameters: species or system Wistar rat; conditions: Schild plot, mean ± SEM of six to eight experiments
Method: Vascular α-adrenoceptor blocking activity was evaluated in the Wistar rat aorta preparation. Isolated rat aorta preparations were mounted in organ bath and suspended in Krebs solution at 37° C. […] or 75 mM KCl was added to the bath medium after a control concentration-response curve to norepinephrine had been obtained. The tissue was exposed to test compounds for 30 min before rechallenging with norepinephrine. Inhibitions were expressed as percentages of the maximum contraction obtained by the challenge of the tissues with norepinephrine. The 70 mM NaCl on 75 mM KCl solution may to replace with equimolar KCl, if necessary.
The methods published by Huang Y C. et. al. in J Cardiovasc Pharmacol.34, pp.10-20 (1999) and Drug Devel Res. 47, 77-89 (1999). Through referenced and modified method to evaluate, test compounds whether have α1-adrenergic and sertoninergic effect.
Isolated Wistar rat aorta preparations were mounted in organ bath and suspended in Krebs solution (NaCl, 118 mM, KCl, 4.8 mM; CaCl,2.5 mM; MgSO4,1.2 mM; K2PO4,1.2 Mm; […] Mm; glucose, 11 mM) at 37° C. under 1 g resting tension.
Upon balancing for 60 minutes, 10^−10-10^−4 M norepinephrine is administered directly from low concentration to high using 0.5 log unit to gradually increase until the maximum reaction is reached, and this act as the control unit. Then different concentrations of the synthetic testing compounds, 10^−7 M, 10^−6 M, or 10^−5M, are used, and upon 30 minutes of reaction, norepinephrine is used again to complete the cumulative dose. The EC50 value of blocking […] may be obtained from observation of the suppressing effects caused by different concentrations of the synthetic testing compound.
The equation is as follows: […]

Chain of β1-adrenoceptor (left atrium) (P18090 whole entry): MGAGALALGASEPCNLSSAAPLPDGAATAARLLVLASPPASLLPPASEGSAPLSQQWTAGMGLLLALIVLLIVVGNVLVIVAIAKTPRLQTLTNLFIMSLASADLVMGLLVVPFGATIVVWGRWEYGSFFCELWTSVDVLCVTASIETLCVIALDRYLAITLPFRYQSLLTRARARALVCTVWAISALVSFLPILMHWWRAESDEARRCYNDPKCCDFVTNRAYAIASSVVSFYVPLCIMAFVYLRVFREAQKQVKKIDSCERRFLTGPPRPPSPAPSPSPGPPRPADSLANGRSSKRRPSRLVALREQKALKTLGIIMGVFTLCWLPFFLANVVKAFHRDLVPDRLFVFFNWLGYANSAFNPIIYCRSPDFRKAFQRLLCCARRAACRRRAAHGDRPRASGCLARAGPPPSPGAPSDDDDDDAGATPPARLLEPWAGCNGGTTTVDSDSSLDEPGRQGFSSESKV

β1 pA2 value, Left atrium [2] | inhibition at 1 µM ([5]; 10^−6M) | inhibition at 0.1 µM ([5]; 10^−7M) | inhibition at 0.01 µM ([5]; 10^−8M) | inhibition at 1 µM ([6]; 10^−6M, read-out: Inhibitory activity of ACE, In Rat lung) | inhibition at 0.1 µM ([6]; 10^−7M, read-out: Inhibitory activity of ACE, In Rat lung) | Inhibitory activity of ACE, In Rat lung ([6]; 10^−8M) | Compound | Decrease of blood pressure [1] | β2 pA2 value, Trachea [3] | β1/β2 Ratio [4] | β1 pA2 value, Right atrium [4] | α1 pA2 value, Aorta (α1-adrenoceptor (aorta)) | Kb [2]
6.92 |  |  |  |  |  |  | 1-[(4 -Propenoic acid ethyl ester)phenoxy-3-amino]-propanol [compound 1] | 60 ± 4.7 mmHg | 6.43 | 2.1 | 6.83 |  | 
 | 99% | 94% | 54% | 98% | 93% | 51% | CCOC(=O)[C@H](CCc1ccccc1)N[C@@H](C)C(=O)N1CCC[C@H]1C(=O)O [Enalapril, reference compound] |  |  |  |  |  | 
6.84 |  |  |  |  |  |  | COc1cc(CO)ccc1OCC(O)CNC(C)(C)C (centres unmarked) [compound 2, Vanynolol] | 72 ± 2.5 mmHg | 6.61 | 2.3 | 6.67 | 7.23 | 

The next lines start with the compound.

Compound | β1 pA2 value, Left atrium [2] | inhibition at 1 µM ([5]; 10^−6M) | inhibition at 0.1 µM ([5]; 10^−7M) | inhibition at 0.01 µM ([5]; 10^−8M) | inhibition at 1 µM ([6]; 10^−6M, read-out: Inhibitory activity of ACE, In Rat lung) | inhibition at 0.1 µM ([6]; 10^−7M, read-out: Inhibitory activity of ACE, In Rat lung) | Inhibitory activity of ACE, In Rat lung ([6]; 10^−8M) | Decrease of blood pressure [1] | β2 pA2 value, Trachea [3] | β1/β2 Ratio [4] | β1 pA2 value, Right atrium [4] | α1 pA2 value, Aorta (α1-adrenoceptor (aorta)) | Kb [2]
CC(C)NCC(O)COc1ccc(CC(N)=O)cc1 (centres unmarked) [atenolol, reference compound] |  |  |  |  |  |  |  |  | 5.81 |  | 7.34 | <5.00 | 
CCOC(=O)CCc1ccc(OCC(O)CNCCOc2ccccc2OC)cc1 (centres unmarked) [compound 3, Propiodilol] | 6.78 |  |  |  |  |  |  | 56 ± 3.8 mmHg | 6.71 | 1.9 | 6.74 |  | 
COc1ccccc1OCCNCC(O)COc1ccc(CO)cc1OC (centres unmarked) [compound 4, Vanydilol] | 6.76 |  |  |  |  |  |  | 83 ± 9.1 mmHg | 6.69 | 1.6 | 6.72 | 7.89 | 
CC(CCc1ccccc1)NCC(O)c1ccc(O)c(C(N)=O)c1 (centres unmarked) [labetalol, reference compound] |  |  |  |  |  |  |  |  | 7.54 | 2.3 | 7.91 | 6.87 | 28.8 nM
CC(C)NCC(O)COc1cccc2ccccc12 (centres unmarked) [propranolol, reference compound] |  |  |  |  |  |  |  |  | 8.07 |  |  | <5.00 | 

Source: patent US20030040485A1, “alpha/beta-adrenoceptors blockers and angiotensin converting enzyme inhibitors derived from hydroxyphenyl carboxylic acid and alcohol” (priority 2001, published 2003)
